Reference: patent US20180193409A1, “PEPTIDYL TPOR ANTAGONISTS AND USES THEREOF” (POLYMERS CRC LIMITED, priority 2015, published 2018)
Bridge positions count the residues as written; N and C are the ends. Peptide text beside a SMILES is read from it. I, II: the chains in the order shown.

What was measured:
[1] = target: T1, receptor for human TPO (c-Mpl) (Homo sapiens, UniProt P40238); assay: Agonist assay: proliferation of FD-Mpl cells in the absence of rhTPO (ATP-luminescence); assay type: cell-based; conditions: no rhTPO
T1 construct: expressed in transfected cells; host or cells: FD-Mpl (murine, derived from FDCP-1)
T1 sequence (P40238 26-635): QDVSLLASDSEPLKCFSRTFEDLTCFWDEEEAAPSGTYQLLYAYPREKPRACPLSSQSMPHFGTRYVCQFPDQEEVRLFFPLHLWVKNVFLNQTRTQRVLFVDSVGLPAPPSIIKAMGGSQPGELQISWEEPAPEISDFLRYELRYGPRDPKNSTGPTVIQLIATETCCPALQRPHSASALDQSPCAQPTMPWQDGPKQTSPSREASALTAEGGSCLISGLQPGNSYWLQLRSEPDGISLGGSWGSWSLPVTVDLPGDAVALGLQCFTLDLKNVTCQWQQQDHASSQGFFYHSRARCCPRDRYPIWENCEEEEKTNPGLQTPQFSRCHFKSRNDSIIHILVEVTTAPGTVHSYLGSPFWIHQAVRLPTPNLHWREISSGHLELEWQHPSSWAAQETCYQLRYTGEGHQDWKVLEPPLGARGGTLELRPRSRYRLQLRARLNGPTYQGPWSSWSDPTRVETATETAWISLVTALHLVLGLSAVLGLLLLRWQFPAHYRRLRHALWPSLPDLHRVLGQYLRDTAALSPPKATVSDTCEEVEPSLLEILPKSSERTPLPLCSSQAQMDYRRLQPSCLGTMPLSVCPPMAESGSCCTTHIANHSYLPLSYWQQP
Method: Bioactivity testing was carried out as follows. All compounds were tested on a murine TPO-dependent cell line FD-Mpl. FD-Mpl cells are derived from the haemopoietic growth factor dependent cell line FDCP-1 and express the receptor for human TPO (c-Mpl)—(as per Winkler, D., Riches, A., Condie, G., Tarasova, A., Andrade, J., White, J., Cablewski, T., Werkmeister, J., Haylock, D. and Meagher, L., ACS Chemical Biology 2010, DOI: 10.1021/cb100100u). These cells are typically cultured in media supplemented with 10% foetal bovine serum and the cytokines interleukin-3, GM-CSF or TPO (as per Naparstek, E., Pierce, J., Metcalf, D., Shadduck, R., Ihle, J., Leder, A., Sakakeeny, M. A., Wagner, K., Falco, J., Fitzgerald, T. J. and Greenberger, J. S., Blood 1986, 67, 1395-1403). In the absence of either of these factors, FDCP-1 cells rapidly undergo apoptosis (usually within 24 hours). FD-Mpl cells were maintained in DMEM medium with 10% foetal calf serum (FCS) and supplemented with 30 ng/mL of recombinant human TPO (rhTPO, Apollo Cytokine Research). For the antagonist assay, FD-Mpl cells were harvested by centrifugation and the resulting cell pellet was thoroughly washed, twice, with 10 mL PBS to remove residual cytokine. The cells were then resuspended in 5 mL of cell culture medium without rhTPO and incubated at 37° C. for 1 h (or 2 h in the case of the agonist assay; Note: short term withdrawal of rhTPO enhances up-regulation of the TPO receptor, c-Mpl). FD-Mpl cells were counted and resuspended in a mix of cell culture medium with added peptide of interest and incubated at 4° C. for 2 h (for the agonist assay this brief incubation at 4° C. for 2 h was omitted). Following this incubation, cells were supplemented with low doses of TPO (either 6 or 10 ng/mL of rhTPO) and plated at 5000 cells/well/100 μL medium in a 96-well tissue culture plate. […]
(§1) Cells were then incubated at 37° C. for 24 hours (or 48 hours in the case of the agonist assay) and cell proliferation was assessed as follows. Cells were plated in quadruplicate onto white luminescence detection plates and cell proliferation and viability were assessed by an ATP-luminescence detection assay (CellTiter Glo Luminescent Cell Viability Assay Kit, Promega). Cells were also plated in triplicate and cell morphology was assessed using phase contrast microscopy.
For the antagonist assay, the cell numbers determined via the luminescence assay were normalised by the cell numbers obtained for FD-Mpl cells cultured in either 6 or 10 ng/mL of rhTPO without added peptide and plotted as a function of the peptide concentration (see FIGS. 1a and b). […] For the agonist assay used with the LCP-PD peptide, the cell numbers were normalised by the cell numbers obtained with media supplemented with 30 ng/mL rhTPO and expressed as a percentage. […]

[2] = target: T1, receptor for human TPO (c-Mpl); assay: Antagonist assay: proliferation of FD-Mpl cells in media supplemented with rhTPO (ATP-luminescence); assay type: cell-based; conditions: murine FD-Mpl cells, 6 or 10 ng/mL rhTPO (LCP also 30 ng/mL), 24 hours; read-out: concentration at which the decrease in normalised cell proliferation occurred (estimated EC50, antagonist assay)
Method: Bioactivity testing was carried out as follows. All compounds were tested on a murine TPO-dependent cell line FD-Mpl. FD-Mpl cells are derived from the haemopoietic growth factor dependent cell line FDCP-1 and express the receptor for human TPO (c-Mpl)—(as per Winkler, D., Riches, A., Condie, G., Tarasova, A., Andrade, J., White, J., Cablewski, T., Werkmeister, J., Haylock, D. and Meagher, L., ACS Chemical Biology 2010, DOI: 10.1021/cb100100u). […] FD-Mpl cells were counted and resuspended in a mix of cell culture medium with added peptide of interest and incubated at 4° C. for 2 h (for the agonist assay this brief incubation at 4° C. for 2 h was omitted). […]
as §1, with “microscopy. […]” for “microscopy.”

| efficacy with respect to cell proliferation (agonist assay) ([1]; FD-Mpl cells, normalised by cell numbers with 30 ng/mL rhTPO) | EC50 ([1]; murine FD-Mpl cells, 48 hours, read-out: concentration at which increased cell proliferation was observed (agonist assay)) | EC50 [2] | agonist activity at the c-Mpl receptor (in words) ([1]; FD-Mpl cells) | SMILES |
| --- | --- | --- | --- | --- |
| 40% | ~0.06 µM | ~3 µM | – | CC[C@H](C)[C@@H]1NC(=O)[C@H](C)NC(=O)[C@@H](NC(=O)[C@H](C)NC(C)=O)CSSC[C@@H](C(=O)N[C@@H](C)C(=O)O)NC(=O)[C@H](C)NC(=O)[C@H](C)NC(=O)[C@H](CCCNC(=N)N)NC(=O)[C@H](C)NC(=O)[C@H](C)NC(=O)[C@H](CC(C)C)NC(=O)[C@H](Cc2c[nH]c3ccccc23)NC(=O)[C@H](CCC(N)=O)NC(=O)[C@H](CCCNC(=N)N)NC(=O)[C@H](CC(C)C)NC(=O)[C@H]([C@@H](C)O)NC(=O)[C@@H]2CCCN2C(=O)CNC(=O)[C@H](CCC(=O)O)NC1=O [LCP] (Ac-ACAIEGPTLRQWLAARAACA-OH; disulfide 2-19; C-terminus assumed) |
| – | – | 20 to 30 µM | – | CC(=O)N[C@@H](C)C(=O)N[C@H]1CSSC[C@@H](C(=O)N[C@@H](C)C(=O)O)NC(=O)[C@H](C)NC(=O)[C@H](C)NC(=O)[C@H](C)NC(=O)[C@H](CC(C)C)NC(=O)[C@H](Cc2c[nH]c3ccccc23)NC(=O)[C@H](CCC(N)=O)NC(=O)[C@H](CCCNC(=N)N)NC(=O)[C@H](CC(C)C)NC(=O)[C@H](C)NC(=O)[C@H](C)NC(=O)[C@H](C)NC1=O [Example 2, AcACAAALRQWLAAACA] (Ac-ACAAALRQWLAAACA-OH; disulfide 2-14) |
| – | – | – | reasonably potent agonist | CC(=O)N[C@@H](C)C(=O)N[C@H]1CSSC[C@H](NC(=O)[C@H](C)NC(C)=O)C(=O)N[C@@H](C)C(=O)N[C@@H](C)C(=O)N[C@@H](C)C(=O)N[C@@H](CC(C)C)C(=O)N[C@@H](CCCNC(=N)N)C(=O)N[C@@H](CCC(N)=O)C(=O)N[C@@H](Cc2c[nH]c3ccccc23)C(=O)N[C@@H](CC(C)C)C(=O)N[C@@H](C)C(=O)N[C@@H](C)C(=O)N[C@@H](C)C(=O)N[C@H](C(=O)N[C@@H](C)C(=O)O)CSSC[C@@H](C(=O)N[C@@H](C)C(=O)O)NC(=O)[C@H](C)NC(=O)[C@H](C)NC(=O)[C@H](C)NC(=O)[C@H](CC(C)C)NC(=O)[C@H](Cc2c[nH]c3ccccc23)NC(=O)[C@H](CCC(N)=O)NC(=O)[C@H](CCCNC(=N)N)NC(=O)[C@H](CC(C)C)NC(=O)[C@H](C)NC(=O)[C@H](C)NC(=O)[C@H](C)NC1=O [MCP-PD] (I: Ac-ACAAALRQWLAAACA-OH / II: Ac-ACAAALRQWLAAACA-OH; disulfide I:2-II:2, I:14-II:14; C-terminus assumed) |
| – | – | – | potent agonist | CC[C@H](C)[C@@H]1NC(=O)[C@H](C)NC(=O)[C@@H](NC(=O)[C@H](C)NC(C)=O)CSSC[C@H](NC(=O)[C@H](C)NC(C)=O)C(=O)N[C@@H](C)C(=O)N[C@@H]([C@@H](C)CC)C(=O)N[C@@H](CCC(=O)O)C(=O)NCC(=O)N2CCC[C@H]2C(=O)N[C@@H]([C@@H](C)O)C(=O)N[C@@H](CC(C)C)C(=O)N[C@@H](CCCNC(=N)N)C(=O)N[C@@H](CCC(N)=O)C(=O)N[C@@H](Cc2c[nH]c3ccccc23)C(=O)N[C@@H](CC(C)C)C(=O)N[C@@H](C)C(=O)N[C@@H](C)C(=O)N[C@@H](CCCNC(=N)N)C(=O)N[C@@H](C)C(=O)N[C@@H](C)C(=O)N[C@H](C(=O)N[C@@H](C)C(=O)O)CSSC[C@@H](C(=O)N[C@@H](C)C(=O)O)NC(=O)[C@H](C)NC(=O)[C@H](C)NC(=O)[C@H](CCCNC(=N)N)NC(=O)[C@H](C)NC(=O)[C@H](C)NC(=O)[C@H](CC(C)C)NC(=O)[C@H](Cc2c[nH]c3ccccc23)NC(=O)[C@H](CCC(N)=O)NC(=O)[C@H](CCCNC(=N)N)NC(=O)[C@H](CC(C)C)NC(=O)[C@H]([C@@H](C)O)NC(=O)[C@@H]2CCCN2C(=O)CNC(=O)[C@H](CCC(=O)O)NC1=O [LCP-PD] (I: Ac-ACAIEGPTLRQWLAARAACA-OH / II: Ac-ACAIEGPTLRQWLAARAACA-OH; disulfide I:2-II:2, I:19-II:19; C-terminus assumed) |
